From patent US12233161B1, “Lipids and lipid nanoparticle formulations” (LONGUIDE BIOPHARMA CORPORATION, priority 2024, dated 2025)
Where “and” joins values, the source holds several entries; their conditions need not be identical. Equal entries are not always repeated.

Assays:
mice [1] = assay: In vivo delivery of FLuc-mRNA lipid nanoparticles in mice, in vivo imaging (IVIS)
Procedure, shortened: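 Mice (n=3) received about 75 μL FLuc-mRNA LNP per mouse intramuscularly (rectus femoris), intravenously (tail vein), intraperitoneally or subcutaneously (back). After injection, D-luciferin (200 μL, 15 mg/mL) was given i.p. 10-15 min before IVIS imaging.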

[2] = Potential characterization of nucleic acid lipid nanoparticle preparations; assay type: physicochemical
Procedure, shortened: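 Zeta potential was read on a Malvern ZEN3700 after diluting 20 μL lipid nanoparticle solution (about 0.04 mg/mL mRNA) into 780 μL ultrapure water. Alternatively, a 27.5 μL sample in 200 μL water was first sized by dynamic light scattering, then diluted with 600 μL more water for potential measurement.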

mice [3] = assay: In vivo delivery of lipid nanoparticles co-loaded with FLuc-mRNA and Cy5-siRNA in mice; settings: IV, 1.00:10.00:33.00:56.00, N/P 30
Procedure: Lipid nanoparticles loaded with nucleic acid drugs were prepared according to step 2, replacing FLuc-mRNA with a mixture of FLuc-mRNA (Hongene Biotech Corporation, Shanghai) and Cy5-siRNA. Each mouse was administered a dose of 3 μg FLuc-mRNA and 3 μg Cy5-siRNA. After a certain period of time, in vivo imaging (PerkinElmer, IVIS Lumina III) was performed. For the detection of FLuc-mRNA expression, 200 μL of a 15 mg/mL D-Luciferin working solution was injected intraperitoneally ten to fifteen minutes before imaging, followed by imaging analysis using the in vivo imaging system. 9. Investigation of the Delivery Efficacy of Lipid Nanoparticle Formulations for Compounds in Mice

[4] = Particle size and PDI of nucleic acid lipid nanoparticle preparations by dynamic light scattering; assay type: physicochemical
Procedure, shortened: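 Nanoparticle suspension (about 0.04 mg/mL mRNA) diluted in ultrapure water, mixed by gentle pipetting; particle size measured by dynamic light scattering. Zeta potential measured on the recovered sample after further dilution in ultrapure water.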

[5] = DMG-PEG2000:DSPC:Chol:Lipid 1.00:4.00:65.00:30.00, N/P 6, IV, liver
[6] = DMG-PEG2000:DSPC:Chol:Lipid 1.00:4.00:65.00:30.00, N/P 6, IV, lung
[7] = DMG-PEG2000:DSPC:Chol:Lipid 1.00:4.00:65.00:30.00, N/P 6, IV, spleen
[8] = DMG-PEG2000:DSPC:Chol:Lipid 5.00:10.00:29.00:56.00, N/P 42, IV, liver
[9] = DMG-PEG2000:DSPC:Chol:Lipid 5.00:10.00:29.00:56.00, N/P 42, IV, lung
[10] = DMG-PEG2000:DSPC:Chol:Lipid 5.00:10.00:29.00:56.00, N/P 42, IV, spleen
[11] = mRNA LNP, 1.00:10.00:33.00:56.00, N/P 42, IV, liver
[12] = mRNA LNP, 1.00:10.00:33.00:56.00, N/P 42, IV, lung
[13] = mRNA LNP, 1.00:10.00:33.00:56.00, N/P 42, IV, spleen
[14] = DMG-PEG2000:DSPC:Chol:compound 1.00:10.00:33.00:56.00, N/P 42
[15] = DMG-PEG2000:DSPC:Chol:compound 1.00:10.00:33.00:56.00, N/P 48
[16] = LNP co-loaded with Fluc-mRNA and Cy5-siRNA, DMG-PEG2k:DSPC:Chol:L0263 1.00:10.00:33.00:56.00, N/P 30
[17] = mRNA LNP, 1.00:10.00:33.00:56.00, N/P 42
[18] = DMG-PEG2000:DSPC:Chol:Lipid 1.00:4.00:65.00:30.00, N/P 6, mRNA LNP
[19] = DMG-PEG2000:DSPC:Chol:Lipid 2.18:17.32:60.50:20.00, N/P 30, mRNA LNP
[20] = DMG-PEG2000:DSPC:Chol:Lipid 5.00:10.00:29.00:56.00, N/P 42, mRNA LNP

Compound: CCCCCCCCCCCCNC(=O)C(O)CN(CCCN(C)CCCN(CC(O)C(=O)NCCCCCCCCCCCC)CC(O)C(=O)NCCCCCCCCCCCC)CC(O)C(=O)NCCCCCCCCCCCC (centres unmarked) [Compound L0263]
- IVIS (mice [1]; DMG-PEG2000:DSPC:Chol:Lipid 1.00:4.00:65.00:30.00, N/P 6, IV, body): 1.07 × 10^7
- % of organ targeting (mice [1]; [5]): 10.71%
- IVIS (mice [1]; [5]): 1.34 × 10^6
- % of organ targeting (mice [1]; [6]): 12.46%
- IVIS (mice [1]; [6]): 1.55 × 10^6
- % of organ targeting (mice [1]; [7]): 76.83%
- IVIS (mice [1]; [7]): 9.58 × 10^6
- IVIS (mice [1]; DMG-PEG2000:DSPC:Chol:Lipid 2.18:17.32:60.50:20.00, N/P 30, IM, whole body scan): 6.05 × 10^6
- IVIS (mice [1]; DMG-PEG2000:DSPC:Chol:Lipid 5.00:10.00:29.00:56.00, N/P 42, IV, body): 1.83 × 10^8
- % of organ targeting (mice [1]; [8]): 2.01%
- IVIS (mice [1]; [8]): 4.24 × 10^6
- % of organ targeting (mice [1]; [9]): 90.12%
- IVIS (mice [1]; [9]): 1.90 × 10^8
- % of organ targeting (mice [1]; [10]): 7.87%
- IVIS (mice [1]; [10]): 1.66 × 10^7
- IVIS (mice [1]; IP, organ not given, DMG-PEG2000:DSPC:Chol:compound 1.00:10.00:33.00:56.00, N/P 42, Fluc-mRNA): 5.82E+09
- IVIS (mice [1]; IV, body, DMG-PEG2000:DSPC:Chol:compound 1.00:10.00:33.00:56.00, N/P 48, Fluc-mRNA): 7.08E+08
- % of organ targeting (mice [1]; IV, liver, DMG-PEG2000:DSPC:Chol:compound 1.00:10.00:33.00:56.00, N/P 48): 0.44%
- IVIS (mice [1]; IV, liver, DMG-PEG2000:DSPC:Chol:compound 1.00:10.00:33.00:56.00, N/P 48, Fluc-mRNA): 1.71E+07
- % of organ targeting (mice [1]; IV, lung, DMG-PEG2000:DSPC:Chol:compound 1.00:10.00:33.00:56.00, N/P 48): 98.92%
- IVIS (mice [1]; IV, lung, DMG-PEG2000:DSPC:Chol:compound 1.00:10.00:33.00:56.00, N/P 48, Fluc-mRNA): 3.83E+09
- % of organ targeting (mice [1]; IV, spleen, DMG-PEG2000:DSPC:Chol:compound 1.00:10.00:33.00:56.00, N/P 48): 0.63%
- IVIS (mice [1]; IV, spleen, DMG-PEG2000:DSPC:Chol:compound 1.00:10.00:33.00:56.00, N/P 48, Fluc-mRNA): 2.46E+07
- in vivo delivery efficiency as compared to the benchmark compound SM102 (mice [1]; certain formulations, Table 2): superior in vivo delivery efficiency
- tissue-targeting specificity (lung vs spleen depending on molar percentage of compound) (mice [1]; certain formulations, Table 2): strong tissue-targeting specificity
- % of organ targeting (mice [1]; [11]): 0.46%
- IVIS (mice [1]; [11]): 8.07E+06
- % of organ targeting (mice [1]; [12]): 99.18%
- IVIS (mice [1]; [12]): 1.74E+09
- % of organ targeting (mice [1]; [13]): 0.36%
- IVIS (mice [1]; [13]): 6.30E+06
- IVIS (mice [1]; mRNA LNP, DMG-PEG2000:DSPC:Chol:lipid 1.00:10.00:33.00:56.00, N/P 42, IV, body): 2.93E+08
- Zeta potential (mV) [2, 14]: 11.54 mV
- Zeta potential (mV) [2, 15]: 16.93 mV
- Zeta potential (mV) [2, 16]: 12.77 mV
- Zeta potential (mV) [2, 17]: 11.97 mV
- % of organ targeting (Fluc) (mice [3]; 10 min, Heart): 0.2%
- Fluc IVIS/g Organ (mice [3]; 10 min, Heart): 9.76E+05
- % of organ targeting (Fluc) (mice [3]; 10 min, Kidney): 0.1%
- Fluc IVIS/g Organ (mice [3]; 10 min, Kidney): 3.33E+05
- % of organ targeting (Fluc) (mice [3]; 10 min, Liver): 0.1%
- Fluc IVIS/g Organ (mice [3]; 10 min, Liver): 5.97E+05
- % of organ targeting (Fluc) (mice [3]; 10 min, Lung): 97.9%
- Fluc IVIS/g Organ (mice [3]; 10 min, Lung): 4.98E+08
- % of organ targeting (Fluc) (mice [3]; 10 min, Spleen): 1.7%
- Fluc IVIS/g Organ (mice [3]; 10 min, Spleen): 8.58E+06
- % of organ targeting (Fluc) (mice [3]; 20 min, Heart): 0.2%
- Fluc IVIS/g Organ (mice [3]; 20 min, Heart): 3.16E+06
- % of organ targeting (Fluc) (mice [3]; 20 min, Kidney): 0.0%
- Fluc IVIS/g Organ (mice [3]; 20 min, Kidney): 4.37E+05
- % of organ targeting (Fluc) (mice [3]; 20 min, Liver): 0.1%
- Fluc IVIS/g Organ (mice [3]; 20 min, Liver): 1.27E+06
- % of organ targeting (Fluc) (mice [3]; 20 min, Lung): 99.2%
- Fluc IVIS/g Organ (mice [3]; 20 min, Lung): 1.98E+09
- % of organ targeting (Fluc) (mice [3]; 20 min, Spleen): 0.6%
- Fluc IVIS/g Organ (mice [3]; 20 min, Spleen): 1.13E+07
- % of organ targeting (Fluc) (mice [3]; 1 h, Heart): 0.2%
- Fluc IVIS/g Organ (mice [3]; 1 h, Heart): 6.32E+06
- % of organ targeting (Fluc) (mice [3]; 1 h, Kidney): 0.0%
- Fluc IVIS/g Organ (mice [3]; 1 h, Kidney): 1.67E+06
- % of organ targeting (Fluc) (mice [3]; 1 h, Liver): 0.1%
- Fluc IVIS/g Organ (mice [3]; 1 h, Liver): 3.51E+06
- % of organ targeting (Fluc) (mice [3]; 1 h, Lung): 98.1%
- Fluc IVIS/g Organ (mice [3]; 1 h, Lung): 3.70E+09
- % of organ targeting (Fluc) (mice [3]; 1 h, Spleen): 1.6%
- Fluc IVIS/g Organ (mice [3]; 1 h, Spleen): 5.86E+07
- PDI [4, 18]: 0.12 ± 0.01
- Particle size [4, 18]: 110.83 ± 1.05 nm
- PDI [4, 19]: 0.11 ± 0.02
- Particle size [4, 19]: 126.23 ± 1.69 nm
- PDI [4, 20]: 0.12 ± 0.01
- Particle size [4, 20]: 126.40 ± 2.08 nm
- PDI [4, 14]: 0.13 and 0.15
- Particle size (nm) [4, 14]: 86.62 nm and 139.47 nm and 118.13 nm
- PDI [4, 15]: 0.13
- Particle size (nm) [4, 15]: 118.33 nm
- PDI [4, 16]: 0.14
- Particle size (nm) [4, 16]: 95.5 nm
- PDI [4, 17]: 0.14
- Particle size (nm) [4, 17]: 97.48 nm
